Among the data in PubChem BioAssay AID2384 (Southern Research Specialized Biocontainment Screening …, 2010) are IC50 values, retold here.

In the assay the test system is S. typhi GFP reporter counter-screen, fluorescence, 4 h. The assay can be described thus: inhibitors in S. typhi counter-screen strain, dose response, counter-screen for PhoP regulon inhibitor project, fluorescence, 4 h (AID 2384). A general note: Counterscreens check selectivity or assay interference.

For orientation: IC50 means the concentration that inhibits the measured activity by half.

On to `Cc1cc(OCC(O)CNC(C)c2ccccc2)ccc1C(C)C` (stereo not given), for which the IC50 is 38.3 µM.

As for `CC(C)CCC(CCNCc1ccccn1)c1ccc(Cl)cc1` (stereo not given), the IC50 is 54.7 µM.

`Fc1ccc(NC(=S)Nc2cc(-c3ccccc3)[nH]n2)cc1Cl`: the IC50 was 71.7 µM.

Regarding `Cn1ncnc2c(=O)n(C)c(=O)nc1-2`, the IC50 is 2.53 µM.

On to `O=C(N/N=C/c1c[nH]c2ccccc12)c1ccc(Cl)cc1`, for which the IC50 was 91.6 µM.

In the case of `Cc1ccc(NC2=NCCCS2)cc1Cl`, the IC50 is 126 µM.

Take `CCOC(=O)N1CCN(CCC(=O)c2ccc(Br)cc2)CC1`: the IC50 was 82.3 µM.

For `CC(NCC(O)COCCC12CC3CC(CC(C3)C1)C2)c1ccccc1` (stereo not given), the IC50 was 23.1 µM.

Regarding `CCCCCCCCCCCCCCCC[N+](C)(C)CC`, the IC50 was 19.3 µM.

Consider `CCCCCCCCCCOC(=O)Cn1c(COc2ccc(C)cc2)[n+](C)c2ccccc21`, for which the IC50 is 18.3 µM.

`CCOc1ccc(-c2cc(C)[n+](CCN(CC)CC)c(-c3ccc(OCC)cc3)c2)cc1`: the concentration for half-maximal inhibition (IC50) was 26.4 µM.

Take `CC(C)(C)/C(O)=C/c1nc2cc(Cl)ccc2oc1=O`: the IC50 was 24.2 µM.

In the case of `Cc1cc(C)nc(/N=C(\N)Nc2ccc(SC(F)F)cc2)n1`, the IC50 was 51.3 µM.

For `C=CCOc1ccc(Cl)cc1CNC1CCCC1`, the IC50 is 102 µM.

Regarding `CCCCCCC[N+](CC)(CC)CCCCc1ccc(Cl)cc1`, the IC50 is 37.3 µM.

On to `Cc1ccccc1Nc1cc(C)c2c(O)cccc2n1`, for which the IC50 is 21.9 µM.

As for `O=C(CCNC(=O)c1ccco1)Nc1ccc(SC(F)F)cc1`, the IC50 was 93.7 µM.

Take `CCCCC(=O)NC(=S)NNC(=O)CC`: the IC50 is 62.2 µM.

For `Cc1cccc(C(=O)NNC(=S)NC(=O)c2cccs2)c1`, the IC50 is 66.3 µM.

Consider `O=C(CCc1ccccc1)NNC(=O)c1ccccn1`, for which the IC50 was 57.8 µM.

In the case of `NC[C@@H]1O[C@H](C23CC4CC(CC(C4)C2)C3)Cc2c1ccc(O)c2O`, the IC50 is 27 µM.

As to `Oc1ccc(/C=N/Nc2nccnc2Cl)c(O)c1`, the IC50 is 30.5 µM.

Take `Clc1ccc2c(c1)C(N1CCNCC1)Cc1ccccc1S2` (stereo not given): the IC50 was 35.1 µM.

On to `CC1CCN(CCCCOc2ccc(Cl)cc2)CC1`, for which the concentration for half-maximal inhibition (IC50) was 136 µM.

For the compound `Cc1nc2ccccn2c1C(=O)N/N=C/c1ccc([N+](=O)[O-])o1`, the IC50 is 42.6 µM.

As to `Cc1ccc(-n2c(C)cc(C3N=C(N)Nc4nc5ccccc5n43)c2C)c(C)c1` (stereo not given), the IC50 is 26.6 µM.

For the compound `N#C/C(=C(/O)c1ccco1)c1nc2ccccc2s1`, the IC50 was 57.6 µM.

`CCN1CCN(Cc2ccc(NC(=O)c3cc(NC(=O)c4cc(-c5ccc(OC)cc5)n[nH]4)cc(OC)c3)cc2C(F)(F)F)CC1`: the IC50 was 145 µM.

Consider `O=C(/C=C(\O)c1ccccc1)C(=O)NNC(=O)c1ccccc1`, for which the IC50 is 44.5 µM.

For the compound `c1ccc2c(c1)CSc1sccc1C2=C1CCNCC1`, the IC50 is 80.3 µM.

As to `CN1CCc2c(sc(NC(=O)c3ccc([N+](=O)[O-])o3)c2C(N)=O)C1`, the IC50 is 17.1 µM.

For `Cc1ccc2sc(N(CCCN(C)C)C(=O)c3ccc(Br)s3)nc2c1C`, the 50% inhibitory concentration (IC50) was 36.6 µM.

Take `CN1CCN(C2Cc3cc(F)ccc3Sc3ccc(Cl)cc32)CC1` (stereo not given): the IC50 was 34.6 µM.

`CN(C)c1ccc(O)c2c1CC1CC3[C@@H](N(C)C)C(=O)C(C(N)=O)=C(O)[C@]3(O)C(=O)C1=C2O` (stereo not given in full): the IC50 is 3.9 µM.

`Cc1ccc(-n2c(-c3ccc(Br)cc3)c[n+]3c2CCc2ccc4cccnc4c2-3)cc1`: the IC50 is 40.6 µM.

Turning to `CN(C)CCCN1c2ccccc2Sc2ccccc21`, the IC50 was 40.1 µM.

For the compound `CC(=O)NC(c1cccs1)c1cc([N+](=O)[O-])c2cccnc2c1O` (stereo not given), the IC50 was 25.4 µM.

For `NC1=NC2(CCCCC2)N=C(Nc2ccc(Br)cc2)N1`, the IC50 was 35.9 µM.

As to `CCCCCCOC(=O)C[N+](C)(C)CCOC1CC2CCC1(C)C2(C)C` (stereo not given), the IC50 was 27 µM.

For the compound `Oc1c(Br)cc(Br)cc1C=Nc1cccc2ncccc12`, the IC50 was 21.8 µM.

Turning to `CC(Nc1nc(N2CCCCC2)nc2ccccc12)c1ccccc1` (stereo not given), the IC50 is 133 µM.

For `CN1CC=C(/C=C/c2ccc(-c3ccccc3)cc2)CC1`, the IC50 was 23.7 µM.

Regarding `O=C(NC(=S)NNC(=O)c1ccccc1O)c1ccco1`, the IC50 was 25.8 µM.

In the case of `CCOc1ccc(Nc2nc(NCC3CCCO3)c3ccccc3n2)cc1` (stereo not given), the IC50 is 19.6 µM.

In the case of `Cc1ccc2c(c1)C1CN(C)CCC1N2Sc1ccccc1[N+](=O)[O-]` (stereo not given), the IC50 was 37.9 µM.

Take `CC1COc2c(N3CCN(C)CC3)c(F)cc3c(=O)c(C(=O)O)cn1c23` (stereo not given): the IC50 was 1.73 µM.

`Oc1c(Br)cc(Br)cc1C=NCc1ccc(F)cc1`: the IC50 is 46.2 µM.

Regarding `NC1=NC[C@@H](Cc2ccc(O)cc2)N1CCc1cc(C(F)(F)F)cc(C(F)(F)F)c1`, the concentration for half-maximal inhibition (IC50) was 41.7 µM.

For the compound `N=c1n(CC(=O)c2ccc(Br)s2)c2ccccc2n1Cc1ccccc1`, the IC50 is 27.3 µM.

In the case of `OCCN1CCN(CCCN2c3ccccc3Sc3ccc(C(F)(F)F)cc32)CC1`, the IC50 is 75.1 µM.

As for `CCCCCC(=O)NC(=S)NNC(=O)CC`, the IC50 is 68.8 µM.

As to `O=C(Nc1nnc(-c2ccccn2)o1)c1cccc(Cl)c1`, the IC50 is 91.9 µM.

On to `Cc1ccc2nc(/C(C#N)=C\c3ccc([N+](=O)[O-])o3)[nH]c2c1`, for which the 50% inhibitory concentration (IC50) was 95.9 µM.

For `CN(C)CCCNC(=O)c1ccc(-c2nc(-c3ccc(Cl)cc3)cs2)cc1`, the IC50 was 19.7 µM.

Consider `Cc1ccc(NC(=O)CN(C)C2CCCCC2)cc1Br`, for which the IC50 was 41.6 µM.

As for `COc1cc(C(=O)N/N=C/c2ccc(OC(=O)c3cccc(C)c3)c(OC)c2)ccc1O`, the IC50 is 108 µM.

With `COc1ccc(C(=O)NNC(=S)NC(=O)c2ccccc2)cc1`, the IC50 is 94 µM.

Regarding `CC1CCN(CCC(=O)Nc2ccc(Cl)cc2)CC1`, the IC50 is 105 µM.

With `O=C(N/N=C/c1cc(O)ccc1Br)c1cccnc1`, the IC50 was 69.4 µM.

Regarding `CC1=NN(c2nc3ccccc3[nH]2)C(=O)C1Cc1ccccc1` (stereo not given), the IC50 is 34.2 µM.

On to `CC(C(=O)NC1C=CS(=O)(=O)C1)N1C(=O)/C(=C/c2cccc(Cl)c2)SC1=S` (stereo not given), for which the IC50 is 59.2 µM.

`Cc1ccc(C(=O)N/N=C\c2ccc([N+](=O)[O-])s2)cn1`: the IC50 is 19.8 µM.

Regarding `COc1ccc2nc(N(CCN(C)C)C(=O)/C=C/c3cccs3)sc2c1`, the IC50 was 65.8 µM.

As to `COc1ccccc1C(C[N+](=O)[O-])c1c(N)n(C)c(=O)n(C)c1=O` (stereo not given), the 50% inhibitory concentration (IC50) was 38.5 µM.

`CCN(CC)c1ccc(CNc2nc3ccccc3n2CCN2CCCCC2)cc1`: the IC50 was 43.5 µM.

As to `CCn1cc(C(=O)O)c(=O)c2cc(F)c(N3CCN(C)CC3)cc21`, the IC50 is 1.23 µM.

For `Cc1cc(OCCCCCNCCO)cc(C)c1Cl`, the IC50 is 107 µM.

Regarding `N=c1n(Cc2ccc(Cl)cc2)c2ccccc2n1CC(O)COc1ccccc1` (stereo not given), the IC50 is 36.6 µM.

Consider `CN(C)CC/C=C1\c2ccccc2Sc2ccc(Cl)cc21`, for which the IC50 is 60 µM.

For the compound `Cc1ccc(Nc2nc(NCCO)c3ccccc3n2)cc1C`, the IC50 was 34 µM.

Turning to `O=C(Nc1ccc2nc(-c3ccc(Br)o3)[nH]c2c1)c1cccs1`, the IC50 is 15 µM.

With `Cc1[nH]c2ccc(OC(F)(F)F)cc2c1CCNCc1ccc(Cl)cc1`, the IC50 was 20.5 µM.

`COc1ccc(-c2cnc(NCc3cc4c(cc3[N+](=O)[O-])OCO4)n2C)cc1`: the IC50 is 145 µM.

In the case of `CCCOc1ccc(S(=O)(=O)n2cc(F)c(=O)[nH]c2=O)cc1`, the IC50 is 139 µM.

With `Cc1ccc(N=Cc2cc(Br)cc(Cl)c2O)cc1`, the IC50 is 47.1 µM.
